Source: publication PMC8880129, “Plant- and Bacteria-Derived Compounds with Anti-Philasterides dicentrarchi Activity” (Pathogens, 2022)
Where “and” joins values, the source holds several entries; their conditions need not be identical. Equal entries are not always repeated. Where two headings read alike, the source gives them in different places.

How the values were obtained:
[1] = test system: Philasterides dicentrarchi; experiment: microbe, parasite or virus in culture; conditions: for Ciliate Mortality 3 h (%) / parasites killed after 24 h: 100 μM, culture medium; for Ciliate Mortality 3 h (%): mean ± SD of three replicates; for mortality at 100 µM / GI50 / inhibition at 100 µM: Philasterides dicentrarchi; for Ciliate Mortality 3 h (%) / mortality at 100 µM: 3 h; for mortality at 100 µM: read-out: Ciliate Mortality 3 h (%), 100 μM, 3 h, culture medium, mean ± SD of three replicates; for inhibition at 100 µM: read-out: Growth Inhibition 24 h (%), 100 μM, 24 h, culture medium, mean ± SD of three replicates; for effect on the ciliate (lysis, movement): microscopy observation
Protocol: P. dicentrarchi (isolate I1), obtained from an outbreak of scuticociliatosis in cultured turbot in Galicia, was routinely cultured at 18 °C in complete sterile L15 medium (Leibovitz, PAA Laboratories GmbH, 1% salinity, pH 7.2) containing 90 mg/L each of adenosine, cytidine, and uridine, 150 mg/L of guanosine, 5 g/L of glucose, 400 mg/L of L-α-phosphatidylcholine, 200 mg/L of Tween 80, 10% of heat-inactivated foetal bovine serum (FBS), and 10 mL/L of 100X antibiotic–antimycotic solution (100 units/mL of penicillin G, 0.1 mg/mL of streptomycin sulphate and 0.25 mg/mL of amphotericin B), as previously described. Alternatively, ciliates were cultured in seawater with autoclaved marine bacteria (10^6 cells/mL) supplied as food at 21 °C. The ciliates were cultured under normoxic conditions in tissue culture flasks fitted with vented caps that enabled aeration of the culture medium.
We tested the toxicity to P. dicentrarchi of 26 compounds of natural origin (Table 1). The compounds were prepared in 10 mM stock solutions in dimethyl sulfoxide (DMSO) and maintained at −20 °C until use. In addition, the Pseudomonas H6 lipopeptide surfactant (PS) was prepared, lyophilised and stored at −20 °C [37]. A stock solution of PS was prepared in distilled water (1000 ppm) and diluted in culture medium or seawater at the final concentrations used in each assay and sterile filtered (through 0.2 µm filters) before being added to the parasites or EPC cells.
The anticiliate activity was assayed as previously described, with minor modifications. Ciliates were concentrated by centrifugation at 650× g for 5 min and resuspended in a medium at the concentration required for the assays. All experiments were carried out in triplicate. Wells containing ciliates in a culture medium or seawater without the test compounds were assayed as negative controls. To rule out any possible effects of the solvent (DMSO), triplicate wells with a culture medium or seawater containing the highest concentration of DMSO used (up to 1%) were also included. […] In these assays, the compounds were diluted in 1 mL of culture medium or seawater and added to the wells of 24-well sterile culture plates containing 2.5 × 10^4 ciliates per well, at final concentrations of […], 6.25, 12.5, 25, 50, and 100 µM in culture medium. The effects of the compounds on the motility and morphology of the ciliates were monitored periodically (at 30 min, 1, 2, 3, 24, and 48 h) under an inverted optical microscope. Ciliates were considered dead when they lysed and were not motile. The results obtained are expressed as percentage mortality for each experimental group. To estimate the total number of ciliates per well, the ciliates were inactivated by adding 0.25% glutaraldehyde and counted in a haemocytometer under an optical microscope. The lowest dose of the selected compounds resulting in 100% ciliate mortality (LC100) was assessed at 1, 2, and 3 h after incubation of parasites with sample dilutions (from 0 to 100 μg/mL, in 10 μg intervals). The concentration that inhibited 50% of ciliate growth (GI50), in comparison with the control group, was calculated with Excel software (Microsoft Office; Microsoft, Redmond, WA, USA) by plotting the dose-response data (log dose-per cent of growth inhibition) and applying linear regression (y = mx + b) for data fitting. The values were then calculated from the equation log GI50 = (50 − b)/m, where m is the slope y1 − y2/x1 − x2, and b is the intercept of the line.

[2] = test system: Philasterides dicentrarchi; experiment: Anticiliate activity, ciliates maintained in seawater (LC100, LC50); assay type: cell-based; conditions: 3 h incubation
Protocol: All experiments were carried out in triplicate.

[3] = Toxicity to EPC cell line, MTT assay; assay type: cell-based, fish; conditions: fish
Protocol: (§1) We used the Epithelioma Papulosum Cyprini (EPC) cell line, acquired from the American Type Culture Collection (ATCC®, Manassas, VA, USA), as a control for toxicity. The cell line, kindly provided by Doctors Pereira-Dopazo and Bandin from the Aquaculture Institute of the University of Santiago de Coompostela, was cultured in MEM medium equilibrated with Hanks’ balanced salts (Gibco, Thermo Fischer Sci., Waltham, MA, USA) supplemented with 10% foetal bovine serum and 10 mL/L of 100X antibiotic–antimycotic solution. Cells were maintained subconfluent at 25 °C in a cell culture incubator and used when the confluence reached 75%.
(§2) Cell viability was then estimated by the MTT (3-(4,5-dimethylthiazol-2-yl)-2,5-diphenyl tetrazolium bromide) assay, as previously described, with minor modifications. Briefly, 100 μL of the MTT solution (1 mg/mL in phosphate-buffered saline; pH 7.2) was added to each well, and plates were incubated at 25 °C for 4 h. The yellow tetrazolium salt of MTT is reduced by mitochondrial dehydrogenases in metabolically active cells to form insoluble purple formazan crystals, which are then dissolved by the addition of DMSO (50 μL/well). Prior to the addition of MTT or DMSO, the plates were washed, and the supernatant was removed. The absorbance was measured at 540 nm in a microplate reader (Multiskan™, Thermo Fischer Sci., Waltham, MA, USA), and the relative cell viability was expressed as the mean percentage of viable cells relative to untreated cells.
(§3) In the viability assay, the possible effect of DMSO was evaluated for each compound by the inclusion of three replicate wells with MEM medium and the same DMSO concentration as in the medium. […] Control cells with only MEM were also included in the assay.

[4] = test system: EPC cells; experiment: Toxicity to EPC cell line, MTT assay; assay type: cell-based, fish; conditions: 24 h incubation, compound at its GI50 (24 h)
Protocol: as §1, §2, §3

[5] = test system: Saprolegnia delica; parameters: method as in PMID 32154278; conditions: 0.1 mM; cited from earlier work
[6] = test system: Gyrodactylus kobayashii; parameters: method as in doi:10.1016/j.aquaculture.2021.736372; conditions: exposure to 2.0 μg/mL; cited from earlier work
[7] = test system: goldfish; parameters: method as in doi:10.1016/j.aquaculture.2021.736372; conditions: cited from earlier work
[8] = test system: Amyloodinium ocellatum; parameters: method as in PMID 32154278; conditions: 24 h incubation period; cited from earlier work
[9] = test system: S. parasitica; parameters: method as in PMID 32154278; conditions: 0.1 mM; cited from earlier work
[10] = test system: rainbow trout; parameters: method as in PMID 17979099; conditions: 100 to 2000 ppm in the diet for four weeks; cited from earlier work
[11] = test system: P. dicentrarchi; parameters: method as in PMID 15212284, PMID 21987103, PMID 27334368; conditions: cited from earlier work
[12] = 24 h, read-out: GI50 24 h (compound concentration that inhibited 50% of parasite growth)
[13] = 48 h, read-out: GI50 48 h (compound concentration that inhibited 50% of parasite growth)
[14] = 3 h incubation, compound at its GI50 (24 h), MTT, read-out: EPC Cell Viability (%) Mean ± SD
[15] = 24 h incubation, compound at its GI50 (24 h), MTT, read-out: EPC Cell Viability (%) Mean ± SD

Row | SMILES | Ciliate Mortality 3 h (%) [1] | parasites killed after 24 h ([1]; 24 h) | mortality at 100 µM [1] | GI50 [1, 12] | inhibition at 100 µM ([1]; 24 h) | GI50 [1, 13] | effect on the ciliate (lysis, movement) [1] | LC100 (lowest concentration resulting in 100% ciliate mortality) [2] | viability at 3 h [3, 14] | viability at 24 h [3, 15] | EPC cells killed [4] | growth of Saprolegnia delica [5] | also measured
1 | CC1=CC(=O)c2c(O)cccc2C1=O [Plumbagin] | 100% | killed all the parasites | > 90% | 12.9 ± 1.16 µM | 100% | 9.65 ± 0.67 µM | inhibited the ciliate movement, but it did not cause cell lysis for several hours | 30 µM | 78.7 ± 1.4% | 74.2 ± 3.94% | 26% | inhibiting | GI50 ([1]; 24 h, read-out: GI50 24 h expressed in μg/mL): 2.42 µg/mL; time to complete death of Gyrodactylus kobayashii [6]: ≤ 45 min; concentration toxic to goldfish [7]: higher than 0.5 mg/L
2 | C[C@H]1CC[C@]2(NC1)O[C@H]1C[C@H]3[C@@H]4CC[C@H]5C[C@@H](O[C@@H]6O[C@H](CO)[C@H](O[C@@H]7O[C@H](CO)[C@@H](O)[C@H](O[C@@H]8OC[C@@H](O)[C@H](O)[C@H]8O)[C@H]7O[C@@H]7O[C@H](CO)[C@@H](O)[C@H](O)[C@H]7O)[C@H](O)[C@H]6O)CC[C@]5(C)[C@H]4CC[C@]3(C)[C@H]1[C@@H]2C [Tomatine] | 93.33 ± 2.31% | killed all the parasites | > 90% | 10.1 ± 1.27 µM | 100% | 8.51 ± 0.2 µM | very quick lysis of the ciliate | 10 µM | 63 ± 6.82% | 57.6 ± 7.7% | 43% | inhibited | doses inhibiting dinospore motility [8]: 6.25–50 μg/mL and 0.006–0.05 mM; radial growth of S. parasitica [9]: inhibited; toxic effects of administration in the diet [10]: did not have toxic effects
3 | O=C(/C=C/c1ccccc1)c1ccc(O)cc1O [2′,4′-dihydroxychalcone] | 99 ± 0.71% | killed all the parasites | > 90% | 7.54 ± 1.31 µM | 100% | 5.68 ± 0.16 µM |  | 70 µM |  |  | about 10% |  | viability at 3 h [3]: 92 ± 2.5%; viability at 24 h [3]: 89.7 ± 1.4%
4 | Oc1ccc(/C=C/c2cc(O)cc(O)c2)cc1 [resveratrol] |  |  |  |  |  |  |  |  |  |  |  |  | efficacy against P. dicentrarchi [11]: effective
